Experimental data taken from publication PMC4466200 (Bioorganic & Medicinal Chemistry Letters, 2015).

Legend:
SARS-CoV or MERS-CoV = conditions: cited from earlier work
in vitro = conditions: human
[1] = tested on: MERS-CoV (strain EMC/2012)
[2] = tested on: SARS-CoV (strain Frankfurt-1); type: cell-based
HSV-2 = conditions: CD4+ T cells; McGuigan's ProTide technology employed; cited from earlier work
HIV-1 = conditions: CD4+ T cells; McGuigan's ProTide technology employed; cited from earlier work
other viruses = conditions: needed to inhibit other viruses; cited from earlier work
coronavirus = coronavirus replication in vitro; cited from earlier work

SMILES | activity against SARS-CoV or MERS-CoV in vitro (in words) (SARS-CoV or MERS-CoV) | block of virus replication (in words) [1] | block of virus replication (in words) [2] | also measured
Nc1nc(O)c2ncn(COC(CO)CO)c2n1 [ganciclovir] | none of these well known antiviral drugs exhibited any activity | – | – | –
Cc1cn([C@H]2C[C@H](N=[N+]=[N-])[C@@H](CO)O2)c(=O)[nH]c1=O [zidovudine] | none of these well known antiviral drugs exhibited any activity | – | – | –
Nc1ccn([C@@H]2CS[C@H](CO)O2)c(=O)n1 [lamivudine] | none of these well known antiviral drugs exhibited any activity | – | – | –
COc1nc(N)ncc1-c1cn(COCCO)cn1 [compound 2] | – | can block the replication of MERS-CoV | but not SARS-CoV | selectivity ratio (in vitro): > 3; EC50 [2]: No effect
Nc1nc2c(ncn2COCCO)c(=O)[nH]1 [Acyclovir, acyclovir] | none of these well known antiviral drugs exhibited any activity | had no effect | had no effect | concentration suppressing replication (HSV-2): 3 to 12 µmol/L; concentration suppressing replication (HIV-1): 3 to 12 µmol/L
NC(=O)c1ncn([C@@H]2O[C@H](CO)[C@@H](O)[C@H]2O)n1 [Ribavirin, ribavirin] | – | – | – | inhibitory concentration (other viruses): 50 to 100 µg/mL; inhibitory concentration (coronavirus): 500 to 5000 µg/mL
